How the values were obtained:
[1] = system: HEL cells (human lung fibroblast, normal); assay: MTT cytotoxicity assay, HEL; type: cell-based; conditions: 72 h
Method: (§1) The cytotoxicity study of the prepared copper(II) complexes was performed using the MTT assay on human cell lines—A549 (adenocarcinoma human alveolar basal epithelial cell line), HepG2 (human liver cancer cell line) and HEL (human lung fibroblast cell line, normal cells).
(§2) The cytotoxicity of the prepared copper(II) complexes in human cell lines was evaluated using the 3-(4,5-dimethylthiazol-2-yl)-2,5-diphenyltetrazolium bromide (MTT) assay following the protocol by Mosmann. Briefly, A549 (human lung epithelial cells, carcinoma), HepG2 (human liver epithelial cells, carcinoma) and HEL (human lung fibroblast cells, normal) cells were seeded in plastic 96-well plates at a density of 1.5–2 × 10^4 cells per well. […] After the treatment, the samples were washed with phosphate-buffered saline (PBS), followed by 4 h of incubation with 1 mg/mL of MTT. Subsequently, the MTT solution was removed, and the formed formazane solids were dissolved in dimethyl sulfoxide for 30 min. The photometric evaluation (at 540 nm and 690 nm) was carried out using an xMark™ Microplate Absorbance Spectrophotometer (Bio-Rad, Hercules, CA, USA) [88].
(§3) A549 (ATCC® CCL-185), HepG2 (ATCC® HB-8065) and HEL299 (ATCC® CCL-137) cells were obtained from Lambda Life (Bratislava, Slovakia). A549 cells were kept in Dulbecco’s Modified Eagle’s Medium (DMEM) supplemented with 10% fetal bovine serum (FBS) and 1% antibiotics (penicillin and streptomycin). HepG2 cells were kept in Williams medium supplemented with 10% fetal bovine serum (FBS) and 1% antibiotics (penicillin and streptomycin). HEL299 cells were kept in Minimum Essential Medium (MEM) supplemented with 10% fetal bovine serum (FBS), 1% antibiotics (penicillin and streptomycin) and 1% non-essential amino acids (NEAA). The cells were cultured in a humidified atmosphere of 5% CO2 at 37 °C. Once the cells reached approximately 80% confluence, they were harvested and subcultured after trypsin treatment.

[2] = system: A549 cells; assay: MTT cytotoxicity assay, A549; type: cell-based, human; conditions: 72 h
Method: as §1, §2, §3

[3] = system: supercoiled DNA plasmid pBR322; assay: DNA cleavage assay (agarose gel electrophoresis); type: biochemical; conditions: for Form I (%) / Form II (%) / Form III (%): 3 h, 37 °C, 250 ng pDNA
Text: The gel electrophoresis separation of the supercoiled DNA plasmid pBR322 induced by prepared copper(II) complexes is shown in Figure 7. […] The cleavage activity of 4a and 4c increased remarkably with increasing concentration.
The DNA cleaving activities were also quantified using the “geneQUANT software” (Cleaver Scientific, UK). Data are expressed as percentage (%) expression of the amount of pDNA that has passed through the effect of the nuclease activity of the copper complex from the uncleaved supercoiled Form I to the cleaved Form II (open-circular pDNA) or Form III (linear pDNA) (Table 5). […] Therefore, each percentage can also be converted to the mass of pDNA turned to Form II or III. For example, for complex 4a at a 1 mM concentration, 41.2% of pDNA was cleaved to Form II, which is 103 ng of pDNA, or at a 3 mM concentration, 46.2% corresponds to 115.5 ng of pDNA. Quantification allows us to compare the specific complexes more precisely. […] Some aggregation might be present at higher concentrations, keeping the amount of reactive monomer at a lower level.
The ability of copper(II) complexes to cleave DNA was examined by following the conversion of supercoiled plasmid DNA (Form I) to the open-circular DNA (Form II) and/or linear DNA (forms using agarose gel electrophoresis to separate the cleavage products.
In general, 250 ng of the DNA plasmid pBBR 322 (in 25 mM TRIS-HCl buffer solution, pH 7.5) was treated with different concentrations (1 mM, 3 mM and 5 mM) of the copper(II) complex (dissolved in DMSO) for 3 h at 37 °C. After that, each reaction was quenched by adding 4 μL of a Smart Glow Loading Dye® (loading buffer solution with 0.01% Safe Green dye, 50% glycerol and 250 mM EDTA, pH 8.0) and the sample subjected to electrophoresis (MyGel Mini electrophoresis system®, Accuris, Edison, NJ, USA) on a 0.9% agarose gel containing TAE buffer (40 mM TRIS, 20 mM acetic acid and 1 mM EDTA) at a voltage of 55 V/40 mA for about 1.5 h. As a “running buffer”, TAE buffer (40 mM TRIS, 20 mM acetic acid and 1 mM EDTA) was used. The resulting gels were visualized with UV light and scanned by a mobile device, an Apple iPhone 11 cam 26 mm f1.8. DNA cleaving activities were quantified using the “geneQUANT software” (version 4.3.9, Cleaver Scientific, Rugby, UK).
In the following tables, the percentage (%) expression of the amount of pDNA that has passed through the effect of the nuclease activity of the copper complex from the uncleaved supercoiled form I to the cleaved form II (open circular pDNA) or form III (linear pDNA). Quantitative evaluation was performed using the […] (Cleaver Scientific, UK). V (tested sample) = 20 ul; c (pDNA) = 250 […]
Figure S2-1: The original gel scan: upper left lines 1 – 4 complex 4a (0 mM, 1 mM, 3mM, 5mM), upper lines 6 – 9 complex 4b (0 mM, 1 mM, 3mM, 5mM), lower lines 1 – 4 complex 4c (0 mM, 1 mM, 3mM, […]
(1 picture or pasted object on this page, not shown here)

SMILES | IC50 [1] | IC50 [2] | mass of pDNA in Form I ([3]; complex 1 mM, of 250 ng pDNA) | mass of pDNA in Form II ([3]; complex 1 mM, of 250 ng pDNA) | mass of pDNA in Form I ([3]; complex 3 mM, of 250 ng pDNA) | mass of pDNA in Form II ([3]; complex 3 mM, of 250 ng pDNA) | mass of pDNA in Form I ([3]; complex 5 mM, of 250 ng pDNA) | mass of pDNA in Form II ([3]; complex 5 mM, of 250 ng pDNA) | Form I (%) ([3]; complex 1 × 10^−3 M) | Form II (%) ([3]; complex 1 × 10^−3 M) | Form III (%) ([3]; complex 1 × 10^−3 M) | Form I (%) ([3]; complex 3 × 10^−3 M) | Form II (%) ([3]; complex 3 × 10^−3 M) | Form III (%) ([3]; complex 3 × 10^−3 M) | Form I (%) ([3]; complex 5 × 10^−3 M) | Form II (%) ([3]; complex 5 × 10^−3 M) | Form III (%) ([3]; complex 5 × 10^−3 M) | mass of pDNA in Form III ([3]; complex 5 mM, of 250 ng pDNA)
COc1cccc(CN=Cc2ccccc2[O][Cu][O]c2ccccc2C=NCc2cccc(OC)c2)c1 [Complex 4b, [Cu (Sal-3-MeOBn)2]] | 44.3 ± 3.6 µM | 127 ± 8.1 µM | 146,25 ng | 103,75 ng | 140,5 ng | 109,5 ng | 120,5 ng | 129,5 ng | 58,5% | 41,5% | 0% | 56,2% | 43,8% | 0% | 48,2% | 51,8% | 0% | 
COc1ccc(CN=Cc2ccccc2[O-])cc1.COc1ccc(CN=Cc2ccccc2[O-])cc1.[Cl-].[Cl-].[Cu+2].[Cu+2] [Complex 4c, [Cu2 (Sal-4-MeOBn)2 Cl2]] | 62.9 ± 6.2 µM | 72 ± 6.5 µM | 124,5 ng | 125,5 ng |  | 250 ng | 11,75 ng | 238,25 ng | 49,8% | 50,2% | 0% | 0% |  | 0% | 4,7% | 95,3% | 0% | 
COc1ccccc1CN=Cc1ccccc1[O-].COc1ccccc1CN=Cc1ccccc1[O-].[Cl-].[Cl-].[Cu+2].[Cu+2] [Complex 4a, [Cu2 (Sal-2-MeOBn)2 Cl2]] | 65.9 ± 6.9 µM | 66.4 ± 6.2 µM | 147 ng | 103 ng | 134,5 ng | 115,5 ng |  |  | 58,8% | 41,2% | 0% | 53,8% | 46,2% | 0% | 0% | 0% |  | 250 ng
